Reference: article PMC7161086 (Peptides, 2019)

Tests used:
[1] = test system: Escherichia coli K12; assay: MIC assay, broth microdilution; type: cell-based; settings: 37 °C, 24 h, MHB
[2] = test system: Candida albicans ATCC 90028; assay: MIC, additional antimicrobial activities; type: cell-based
[3] = test system: Escherichia coli ATCC 25922; assay: MIC, additional antimicrobial activities; type: cell-based
[4] = test system: Staphylococcus aureus ATCC 43300 MRSA; assay: MIC, additional antimicrobial activities; type: cell-based; settings: for Minimal inhibitory concentration (MIC) Sa: Staphylococcus aureus ATCC 43300 MRSA
[5] = test system: Staphylococcus aureus JE2 MRSA; assay: MIC assay, broth microdilution; type: cell-based
[6] = test system: Klebsiella pneumoniae ATCC 700603
[7] = test system: human red blood cells; type: cell-based
[8] = test system: Acinetobacter baumannii ATCC 19606; assay: MIC, additional antimicrobial activities; type: cell-based
[9] = test system: Cryptococcus neoformans var. grubii H99 ATCC 20882; assay: MIC, additional antimicrobial activities; type: cell-based
[10] = test system: Psedomonas aeruginosa ATCC 27853; assay: MIC, additional antimicrobial activities; type: cell-based
[11] = test system: HEK-293 human embryonic kidney cells (ATCC CRL-1573); assay: Cytotoxicity, resazurin test; type: cell-based; settings: performed by CO-ADD

Row | Substance | Minimal inhibitory concentration (MIC) Ec [1] [mg/L] | Minimal inhibitory concentration (MIC) Ca [2] [mg/L] | Minimal inhibitory concentration (MIC) Ec [3] [mg/L] | Minimal inhibitory concentration (MIC) Sa [4] [mg/L] | fold increase in activity (decrease of MIC) against MRSA strains ([4]; relative to Cit 1.1, MRSA strains JE2 and ATCC 43300) [fold] | Minimal inhibitory concentration (MIC) Sa ([5]; Staphylococcus aureus JE2 MRSA, 37 °C, 24 h, MHB) [mg/L] | fold increase in activity (decrease of MIC) against S. aureus ([5]; relative to Cit 1.1) [fold] | Minimal inhibitory concentration (MIC) Kp [6] [mg/L] | HC50 Human red blood cells [7] [µg/mL] | Minimal inhibitory concentration (MIC) Ab [8] [mg/L] | Minimal inhibitory concentration (MIC) Cn [9] [mg/L] | Minimal inhibitory concentration (MIC) Pa [10] [mg/L] | IC50 HEK-293 [11] [mg/L]
1 | GLFDVIRRVASVIGGL [AMP-012] | 32 | 16 | 32 | 16 | 2 | 16 | 2 | > 32 | 18.2 | 32 | 16 | > 32 | 
2 | GLFDVI(Orn)(Orn)VASVIGGL [AMP-006] |  | > 32 | > 32 | 32 |  |  |  | > 32 |  | > 32 | 32 | > 32 | > 32
